Values joined by “and” are separate entries in the source; they are usually repeats but may differ in a detail not shown here. Equal entries are not always repeated.
Legend:
[1] = test system: HCT-116; experiment: Antiproliferative MTT assay, HCT-116; type: cell-based; settings: Homo sapiens, HCT-116, read-out: Antiproliferative activity IC50 ± SEM, HCT-116
[2] = test system: MCF-7; experiment: Antiproliferative MTT assay, MCF-7; type: cell-based, human; settings: Homo sapiens, MCF7, read-out: Antiproliferative activity IC50 ± SEM, MCF-7
[3] = test system: MDAMB-231; experiment: Antiproliferative MTT assay, MDAMB-231; type: cell-based, human; settings: MDAMB-231 breast cancer cell line
[4] = test system: PC-3; experiment: Antiproliferative MTT assay, PC-3; type: cell-based; settings: Homo sapiens, PC-3, read-out: Antiproliferative activity IC50 ± SEM, PC-3
[5] = test system: four human cancer cell lines (HCT-116, PC-3, MCF-7, MDAMB-231); experiment: Antiproliferative MTT assay, average over four cancer cell lines; type: cell-based; settings: Homo sapiens, average IC50 of the four cancer cell lines
[6] = molecular target: EGFR-TK (Homo sapiens, UniProt P00533); experiment: EGFR inhibitory assay; type: biochemical; settings: for IC50: EGFR IC50 ± SEM
Sequence of EGFR-TK (P00533 669-1210): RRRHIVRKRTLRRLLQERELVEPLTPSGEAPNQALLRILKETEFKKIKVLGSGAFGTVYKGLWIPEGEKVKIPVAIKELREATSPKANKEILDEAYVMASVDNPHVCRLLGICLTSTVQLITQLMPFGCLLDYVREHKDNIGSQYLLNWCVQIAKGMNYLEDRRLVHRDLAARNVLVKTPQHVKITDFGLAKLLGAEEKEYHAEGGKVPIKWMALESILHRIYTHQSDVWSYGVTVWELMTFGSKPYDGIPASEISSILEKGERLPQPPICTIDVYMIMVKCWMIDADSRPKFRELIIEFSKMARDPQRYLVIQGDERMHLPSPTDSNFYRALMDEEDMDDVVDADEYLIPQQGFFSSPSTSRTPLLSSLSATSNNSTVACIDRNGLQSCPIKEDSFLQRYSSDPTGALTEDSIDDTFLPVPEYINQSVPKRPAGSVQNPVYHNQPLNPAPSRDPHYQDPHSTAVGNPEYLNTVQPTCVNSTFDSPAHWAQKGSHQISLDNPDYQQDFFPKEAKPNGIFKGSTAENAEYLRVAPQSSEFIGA

[7] = molecular target: HER2-TK (Homo sapiens, UniProt P04626); experiment: HER2 inhibitory assay; type: biochemical
Sequence of HER2-TK (P04626 676-1255 limits assumed): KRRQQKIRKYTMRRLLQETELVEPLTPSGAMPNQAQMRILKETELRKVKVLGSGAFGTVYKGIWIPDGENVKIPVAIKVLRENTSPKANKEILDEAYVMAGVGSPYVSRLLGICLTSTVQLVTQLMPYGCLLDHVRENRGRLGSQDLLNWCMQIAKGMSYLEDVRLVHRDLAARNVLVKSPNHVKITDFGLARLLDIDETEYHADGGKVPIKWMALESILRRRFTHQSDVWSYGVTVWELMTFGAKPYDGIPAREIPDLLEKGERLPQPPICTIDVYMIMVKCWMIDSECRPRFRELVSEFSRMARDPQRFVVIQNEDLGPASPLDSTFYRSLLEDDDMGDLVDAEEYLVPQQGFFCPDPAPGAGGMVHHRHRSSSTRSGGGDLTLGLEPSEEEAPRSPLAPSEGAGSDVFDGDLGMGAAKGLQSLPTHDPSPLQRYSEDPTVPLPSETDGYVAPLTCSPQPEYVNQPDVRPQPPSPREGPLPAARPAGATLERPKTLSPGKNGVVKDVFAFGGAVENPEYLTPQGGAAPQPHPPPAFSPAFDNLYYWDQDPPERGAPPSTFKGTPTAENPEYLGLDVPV

[8] = test system: MDA-MB 231 cancer cells; experiment: Cell cycle analysis; type: cell-based, human
[9] = test system: MDA-MB 231 cells; experiment: Apoptosis induction analysis; type: cell-based, human
[10] = test system: BRAF^V600E; settings: read-out: BRAF^V600E IC50; cited from earlier work

With O=C(CN1CCN(c2ccc(Cl)cc2)CC1)Nc1ccc(C(=O)C=Cc2ccco2)cc1 [4n, 2-(4-(4-Chlorophenyl)piperazin-1-yl)-N-(4-(3-(furan-2-yl)acryloyl)phenyl)acetamide] the IC50 [1] was 8.67 ± 0.9 µM, the IC50 [2] was 6.94 ± 0.4 µM and the “times more potent than sorafenib” value [3] was 1.6 times. For the same molecule, the IC50 [4] was 9.08 ± 0.8 µM, the GI50 [5] was 7 µM and the “times less effective as EGFR inhibitors than erlotinib” value [6] was “at least 10 times”. The IC50 [6] was 0.799 µM and 1.78 µM and the IC50 ([7]; HER2 IC50 ± SEM, Table 3) was 0.505 µM.

With COc1ccc(N2CCN(CC(=O)Nc3ccc(C4=NN(C(C)=O)C(c5cc(OC)c(OC)c(OC)c5)C4)cc3)CC2)cc1 (stereo not drawn) [5d, N-(4-(1-Acetyl-5-(3,4,5-trimethoxyphenyl)-4,5-dihydro-1H-pyrazol-3-yl)phenyl)-2-(4-(4-methoxyphenyl)piperazin-1-yl)acetamide] the IC50 [1] was 6.47 ± 0.4 µM, the IC50 [2] was 5.05 ± 0.4 µM and the “times more potent than sorafenib” value [3] was 2.7 times. For the same molecule, the IC50 [4] was 13 ± 1 µM, the GI50 [5] was 7 µM and the IC50 [6] was 0.209 µM. For the same molecule, the IC50 ([7]; HER2 IC50, as printed in text) was 0.061 µM, the IC50 ([7]; HER2 IC50 ± SEM, Table 3) was 0.101 µM and the “Cell cycle analysis, Comment” value ([8]; MDA-MB 231, 24 h, 25 μM) was “Cell cycle arrest @ G1”. The “DNA content % G0–G1” value ([8]; MDA-MB 231, 24 h, 25 μM) was 78.53%, the “DNA content % G2/M” value ([8]; MDA-MB 231, 24 h, 25 μM) was 3.36% and the “DNA content % S” value ([8]; MDA-MB 231, 24 h, 25 μM) was 18.11%. For the same molecule, the “percentage of pre-G1 apoptosis” value ([8]; MDA-MB 231, 24 h incubation) was 78.53%, the “early apoptosis enhanced more than late apoptosis, fold” value ([9]; MDA-MB 231) was 5 fold and the “Apoptosis Early” value ([9]; MDA-MB cancer cells, 24 h) was 17.13. For the same molecule, the “Apoptosis Late” value ([9]; MDA-MB cancer cells, 24 h) was 8.89, the “Apoptosis Total” value ([9]; MDA-MB cancer cells, 24 h) was 29.59 and the Necrosis ([9]; MDA-MB cancer cells, 24 h) was 3.57.

— paper PMC11951252 (RSC Advances, 2025)
